Results reported in ChEMBL document CHEMBL4177643, “Trisubstituted purine inhibitors of PDGFRα and their antileukemic activity in the human eosinophilic cell line EOL-1” (Bioorg Med Chem, 2017).

Assays:
EOL1 [1] = experiment: Cell cycle arrest in human EOL-1 cells assessed as accumulation at S phase at 1 uM after 24 hrs by propidium iodide staining-based flow cytometry (reference value: 20.7%); type: functional
EOL1 [2] = experiment: Cell cycle arrest in human EOL-1 cells assessed as accumulation at S phase at 0.04 uM after 24 hrs by propidium iodide staining-based flow cytometry (reference value: 20.7%); type: functional
EOL1 [3] = experiment: Cytotoxicity against human EOL-1 cells assessed as growth inhibition after 72 hrs by calcein-AM dye based fluorescence assay; type: functional; settings: EOL1, 72 h
EOL1 [4] = experiment: Cell cycle arrest in human EOL-1 cells assessed as accumulation at G1 phase at 0.2 uM after 24 hrs by propidium iodide staining-based flow cytometry (reference value: 60.9%); type: functional
EOL1 [5] = experiment: Cell cycle arrest in human EOL-1 cells assessed as accumulation at G2/M phase at 0.008 uM after 24 hrs by propidium iodide staining-based flow cytometry (reference value: 18.4%); type: functional
[6] = target: Platelet-derived growth factor receptor alpha (Homo sapiens, UniProt P16234); experiment: Inhibition of recombinant human N-terminal GST-His6 tagged PDGFRalpha (Q551 to L1089 residues) expressed in Sf9 insect cells using poly(Ala,Glu,Lys,Tyr)6:2:5:1 hydrobromide as substrate in presence of [gamma-33P]ATP
Sequence of Platelet-derived growth factor receptor alpha (P16234 whole entry, the tested form may be a part): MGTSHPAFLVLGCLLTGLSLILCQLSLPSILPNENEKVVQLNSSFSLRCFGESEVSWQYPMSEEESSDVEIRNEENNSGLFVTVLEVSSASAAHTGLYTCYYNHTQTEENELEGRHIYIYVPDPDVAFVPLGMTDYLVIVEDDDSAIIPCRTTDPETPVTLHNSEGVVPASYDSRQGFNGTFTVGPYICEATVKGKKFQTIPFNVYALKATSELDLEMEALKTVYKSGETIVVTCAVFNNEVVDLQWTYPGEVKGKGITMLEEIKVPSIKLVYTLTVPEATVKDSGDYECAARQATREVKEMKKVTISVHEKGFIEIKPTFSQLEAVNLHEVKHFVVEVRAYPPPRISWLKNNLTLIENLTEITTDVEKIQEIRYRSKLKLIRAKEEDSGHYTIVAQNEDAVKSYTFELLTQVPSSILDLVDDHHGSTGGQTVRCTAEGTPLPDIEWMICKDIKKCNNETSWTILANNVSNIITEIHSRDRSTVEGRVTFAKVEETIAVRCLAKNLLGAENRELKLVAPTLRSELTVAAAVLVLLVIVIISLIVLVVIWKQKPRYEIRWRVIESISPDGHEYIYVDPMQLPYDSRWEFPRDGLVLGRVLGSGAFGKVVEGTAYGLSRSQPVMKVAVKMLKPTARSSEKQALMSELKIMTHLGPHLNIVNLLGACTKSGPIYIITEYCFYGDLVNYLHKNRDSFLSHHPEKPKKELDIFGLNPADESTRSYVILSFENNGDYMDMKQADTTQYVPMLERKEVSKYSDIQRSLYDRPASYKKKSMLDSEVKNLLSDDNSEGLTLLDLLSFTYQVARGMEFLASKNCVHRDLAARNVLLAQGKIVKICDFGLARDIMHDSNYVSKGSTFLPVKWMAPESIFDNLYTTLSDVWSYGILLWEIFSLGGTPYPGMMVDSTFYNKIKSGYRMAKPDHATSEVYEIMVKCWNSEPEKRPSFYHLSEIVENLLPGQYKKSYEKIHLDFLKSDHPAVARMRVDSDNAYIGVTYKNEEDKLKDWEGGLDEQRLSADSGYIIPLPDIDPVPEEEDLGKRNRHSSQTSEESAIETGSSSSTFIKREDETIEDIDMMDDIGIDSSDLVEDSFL

K562 [7] = experiment: Cell cycle arrest in human K562 cells assessed as G1/G2-M ratio at GI50 concentration after 24 hrs by propidium iodide staining-based flow cytometry relative to control; type: functional
BT-474 = experiment: Cytotoxicity against human BT474 cells assessed as growth inhibition after 72 hrs by calcein-AM dye based fluorescence assay; type: functional; settings: BT-474, 72 h
EOL1 [8] = experiment: Cell cycle arrest in human EOL-1 cells assessed as accumulation at G2/M phase at 1 uM after 24 hrs by propidium iodide staining-based flow cytometry (reference value: 18.4%); type: functional
EOL1 [9] = experiment: Cell cycle arrest in human EOL-1 cells assessed as accumulation at S phase at 0.2 uM after 24 hrs by propidium iodide staining-based flow cytometry (reference value: 20.7%); type: functional
EOL1 [10] = experiment: Cell cycle arrest in human EOL-1 cells assessed as accumulation at G2/M phase at 0.04 uM after 24 hrs by propidium iodide staining-based flow cytometry (reference value: 18.4%); type: functional
[11] = target: Cyclin-dependent kinase 2/cyclin E1 (Homo sapiens, UniProt P24941); experiment: Inhibition of CDK2/cyclin E (unknown origin) expressed in baculovirus infected insect Sf9 cells using histone H1 as substrate in presence of [gamma-33P]ATP
EOL1 [12] = experiment: Cell cycle arrest in human EOL-1 cells assessed as accumulation at G1 phase at 0.04 uM after 24 hrs by propidium iodide staining-based flow cytometry (reference value: 60.9%); type: functional
EOL1 [13] = experiment: Cell cycle arrest in human EOL-1 cells assessed as accumulation at sub-G1 phase at 0.008 uM after 24 hrs by propidium iodide staining-based flow cytometry (reference value: 20%); type: functional
EOL1 [14] = experiment: Cell cycle arrest in human EOL-1 cells assessed as accumulation at sub-G1 phase at 1 uM after 24 hrs by propidium iodide staining-based flow cytometry (reference value: 20%); type: functional
MCF7 = experiment: Cytotoxicity against human MCF7 cells assessed as growth inhibition after 72 hrs by calcein-AM dye based fluorescence assay; type: functional; settings: MCF7, 72 h
EOL1 [15] = experiment: Cell cycle arrest in human EOL-1 cells assessed as accumulation at sub-G1 phase at 0.2 uM after 24 hrs by propidium iodide staining-based flow cytometry (reference value: 20%); type: functional
EOL1 [16] = experiment: Cell cycle arrest in human EOL-1 cells assessed as accumulation at S phase at 0.008 uM after 24 hrs by propidium iodide staining-based flow cytometry (reference value: 20.7%); type: functional
EOL1 [17] = experiment: Cell cycle arrest in human EOL-1 cells assessed as accumulation at G2/M phase at 0.2 uM after 24 hrs by propidium iodide staining-based flow cytometry (reference value: 18.4%); type: functional
EOL1 [18] = experiment: Cell cycle arrest in human EOL-1 cells assessed as accumulation at G1 phase at 1 uM after 24 hrs by propidium iodide staining-based flow cytometry (reference value: 60.9%); type: functional
HCC827 [19] = experiment: Cell cycle arrest in human HCC827 cells assessed as G1/G2-M ratio at GI50 concentration after 24 hrs by propidium iodide staining-based flow cytometry relative to control; type: functional
K562 [20] = experiment: Cytotoxicity against human K562 cells assessed as growth inhibition after 72 hrs by calcein-AM dye based fluorescence assay; type: functional; settings: K562, 72 h
EOL1 [21] = experiment: Cell cycle arrest in human EOL-1 cells assessed as G1/G2-M ratio at GI50 concentration after 24 hrs by propidium iodide staining-based flow cytometry relative to control; type: functional
EOL1 [22] = experiment: Cell cycle arrest in human EOL-1 cells assessed as accumulation at sub-G1 phase at 0.04 uM after 24 hrs by propidium iodide staining-based flow cytometry (reference value: 20%); type: functional
EOL1 [23] = experiment: Cell cycle arrest in human EOL-1 cells assessed as accumulation at G1 phase at 0.008 uM after 24 hrs by propidium iodide staining-based flow cytometry (reference value: 60.9%); type: functional
HCC827 [24] = experiment: Cytotoxicity against human HCC827 cells assessed as growth inhibition after 72 hrs by calcein-AM dye based fluorescence assay; type: functional; settings: HCC827, 72 h

IC50 [6]: 66 nM | IC50 [11]: 275 nM
Compound: CC(C)CCn1cnc2c(Nc3cccc(Cl)c3)nc(N[C@H]3CC[C@H](N)CC3)nc21
Activity (EOL1 [1]): 14.5% | Activity (EOL1 [2]): 7.7% | GI50 (EOL1 [3]): 60 nM | Activity (EOL1 [4]): 86.3% | Activity (EOL1 [5]): 10.4% | Ratio (K562 [7]): 1.1 | GI50 (BT-474): 3800 nM | Activity (EOL1 [8]): 5.6% | Activity (EOL1 [9]): 10.6% | Activity (EOL1 [10]): 6.2% | Activity (EOL1 [12]): 86.1% | Activity (EOL1 [13]): 27.9% | Activity (EOL1 [14]): 46.3% | GI50 (MCF7): 2100 nM | Activity (EOL1 [15]): 49.8% | Activity (EOL1 [16]): 12.5% | Activity (EOL1 [17]): 3.1% | Activity (EOL1 [18]): 79.9% | Ratio (HCC827 [19]): 1.33 | GI50 (K562 [20]): 1500 nM | Ratio (EOL1 [21]): 6 | Activity (EOL1 [22]): 36.5% | Activity (EOL1 [23]): 77.1% | GI50 (HCC827 [24]): 10300 nM
